Earlier results in PMC11173647, “Anti-Inflammatory Activity of Pyrazolo[1,5-a]quinazolines” (Molecules, 2024).

Assays:
Set-up in all cases: method as in PMID 32696514
cyclooxygenase 2 (COX-2) = settings: cited from earlier work
[1] = tested on: carrageenan-induced paw edema; settings: carrageenan-induced paw edema model, 10 mg/kg; cited from earlier work
[2] = tested on: gastric ulcerogenic effects; settings: in vivo; cited from earlier work
5-lipoxygenase (5-LOX) = settings: cited from earlier work

For `COc1cc(/C=c2/c(=O)[nH]n3c(=O)c4ccccc4nc23)cc(OC)c1OC` [A], the “selectivity toward COX-2 versus COX-1” value (cyclooxygenase 2 (COX-2); COX-2 versus COX-1) is given as “about 14 fold”, the IC50 (cyclooxygenase 2 (COX-2)) is given as 0.047 µM and the reduction of edema [1] is given as 39%. The gastric ulcerogenic effects [2] was “did not exhibit gastric ulcerogenic effects” and the IC50 (5-lipoxygenase (5-LOX)) was 2.3 µM.
